These results are taken from article PMC7731283, “Synthesis and Biological Evaluation of Halogenated E-Stilbenols as Promising Antiaging Agents” (Molecules, 2020).

One may read the chromatographic logP as a lipophilicity value derived from retention on a column. One may read the melting point as the temperature, or range, at which the solid turns liquid.

A value given as a limit tells only on which side of the number the result lay.

Series [1] in a line: Log P by RP-HPLC (HPLC-PDA), extrapolation of Log k to 0% MeOH. The class given is physicochemical. As to conditions: for Log k / Retention factor (k): RP-C18. As for the experimental part: For each compound, the retention time was reported at different percentages of mobile phases (Table 1). See Materials and Methods and Supplementary Materials for the detailed procedures. (1) k= tR− tM/tM where tR is the retention time of the sample and tM is the retention time of blank (methanol).
Stock solutions of each compound were prepared as follow: 1 mg of the synthesized compound and RSV (control) was weighted and dissolved in 1 mL of dimethyl sulfoxide (DMSO). The working solutions were prepared in methanol at 100 µg/mL. 20 µL of working solutions was injected in HPLC system without pre-treatment.
The HPLC analyses for all new compounds were carried out in isocratic conditions with Milli-Q Water (18.2 MΩ-cm at 25 °C) as solvent A and MeOH as solvent B in different percentages reported in […]. RP-C18 stationary phase (LiChrosorb C18, 150 × 4.6 mm, 5 µm) column was used. All compounds were detected at their maximum wavelength: 322 nm for 1, 301 nm for 2, 324 nm for 3, 324 nm for 4, 373 nm for 5, 322 nm for 6, 320 nm for 7, whereas RSV was detected at 306 nm. The total run time was kept until sample elution.

The subject of series [2] is C2C12 cells. The experiment in a line: MTT assay, cell vitality/proliferation. The class given is cell-based, mouse. As to conditions: C2C12, 48 h, 1 and 10 μM. As to the method: The oxidative stress plays one of the key roles in cell’s life path. For these reasons, to evaluate the possible cytotoxic effects of compounds 1–7 and their effect on the cell proliferative capacity and to define a suitable concentration range, all the new synthesized compounds 1–7 were evaluated for their cytotoxic activity at three different concentrations (1, 10 and 100 μM) via standard MTT assay, using C2C12 cell line (Figure 3). Due to well-known antioxidant and neurodegenerative senescence prevention abilities in addition to enhancing the beneficial effects of physical exercise on the skeletal muscles of the elderly, RSV was used as reference compound [54, 55]. […] For this reason, we performed the same assay also at 48 h for the compounds 5, 6 and RSV (Figure 4).
Prompted by the results obtained for compound 6 as a scavenge ROS due the presence of halogenated groups, we used the widely C2C12 mouse cells as a myogenic model, to study its antioxidant effects following both the evaluation of superoxide anion radical concentration and chemical insults, such as from H2O2. C2C12 cells (CRL 1772; American Type Culture Collection, Rockville, MD, USA) were grown in Dulbecco’s modified Eagle’s medium (DMEM; Euroclone, Pero, Italy) containing 20% foetal bovine serum (Euroclone), […] L-glutamine (Euroclone) and 100 IU mL^−1 penicillin and 100 μg mL^−1 streptomycin (Euroclone). The cells were maintained at 37 °C in a 5% CO2 humidified atmosphere.
Cellular proliferation was tested using a colorimetric assay of 3-[4,5-dimethylthiazol-2-yl]-2,5-diphenyltetrazolium bromide (MTT). We seeded 2000 cells/well in a final volume of 200 μL growth medium in 96-well plates. After 24 h the cells were stimulated with or w/o the newly synthesized compounds for 24 h, or, where indicated, for 48 h. We tested seven new synthesized compounds together with RSV reference at different concentration (1, 10, 100 μM). All compounds were dissolved in DMSO and the experimental dilutions used were made using cellular growth medium. For this reason, the cells were also incubated for 24 h with the DMSO at the same concentration used for the compounds. Incubation was terminated by adding 20 μL of MTT solution (5 mg mL^−1 in phosphate-buffered saline (PBS)) to each well, followed by incubation at 37 °C for 3 h in the dark. After, the plates were centrifuged at 2000 rpm for 15 min. The supernatant was removed, 200 μL dimethylsulfoxide (DMSO) was added to each well, and the plates were incubated for 30 min at 37 °C in the dark. Finally, the plates were read at 540 nm on a scanning multi-well spectrophotometer (Cary50MPR, Varian, Santa Clara, CA, USA).
A general note: Tetrazolium dyes change colour on reduction, which living cells bring about.

Series [3] deals with C2C12 cells. Kind of series: H2DCFDA assay, intracellular ROS after H2O2 insult. The class given is cell-based, mouse. As to conditions: C2C12, 24 h pretreatment, 300 µM H2O2, compared to CTRL. As for the experimental part: Indeed, the antioxidant activity of compound 6 was also evaluated using an H2DCFDA assay (Figure 6). This assay is one of the most widely used techniques for directly measuring the redox state of a cell. In order to accurately measure ROS and the cellular capability to counteract the H2O2 insult, we used cell-permeable fluorescent and chemiluminescent probes. The fluorescence intensity is proportional to the ROS levels within the cell cytosol and it is in inverse relation to the antioxidant capacity of the cells themselves. The ability to restore the basal level of fluorescence are reported in Figure 6, after 0.5 and 10 min following oxidant stimulus.
Intracellular ROS were quantified by the 2′,7′-dichlorodihydrofluorescein diacetate (H2DCF-DA Cat. No. D6883; Sigma). C2C12 cells were plated (2000 cells/well) into special optics 96-well plates (Corning-Costar, New York, NY, USA) and the cells were treated with RSV at 1 µM and Compound 6 at 1 and 10 µM for 24 h. After the incubation, cells were washed with an imaging buffer and treated with 300 µM H2O2 for an immediate fluorescence measurement. Plates were read every 50 s from 0 to 10 min for kinetic data analysis using a microplate reader (Synergy H1, BioTek), with excitation and emission wavelengths at 490 nm and 520 nm, respectively, and analyzed by Gen 5 version 2.08 (BioTek).

For series [4] the following is noted: cited from earlier work.
Where [5] appears, read: Log P estimated by RP-HPLC, extrapolated to 0% MeOH, SD at 95% confidence interval.

Compound `Oc1ccc(/C=C/c2ccc(C(F)(F)F)cc2)cc1` [Compound 7, 4-{(E)-2-[4-(Trifluoromethyl)phenyl]vinyl}phenol] registered a melting point of 161 to 163 °C. Moreover, in series [1] (60% MeOH), the Log k is listed as 1.1515 and the “Retention factor (k)” value is listed as 14.1757. Further, in series [1] (65% MeOH), the Log k is listed as 0.8368 and the “Retention factor (k)” value is 6.8682. Besides, in series [1] (70% MeOH), the Log k is recorded as 0.5372 and the “Retention factor (k)” value is on record as 3.4447. Also, in series [1] (75% MeOH), the Log k is on record as 0.2568 and the “Retention factor (k)” value was 1.8063. Further, in series [1] (80% MeOH), the Log k is reported as −0.0429 and the “Retention factor (k)” value is 0.9059. Besides, the chromatographic logP in series [1] (setting [5]) was 4.7 ± 0.05.

As to `O=[N+]([O-])c1ccc(/C=C/c2ccc(O)c(Cl)c2)cc1` [Compound 5], the “cell vitality (MTT reduction)” value with C2C12 cells [2] is listed as “non-significant dose-dependent decrease of vitality”. Besides, the Log k in series [1] (60% MeOH) was 0.9974; in series [1] (65% MeOH) it was 0.7161; in series [1] (70% MeOH), 0.4442; in series [1] (75% MeOH), 0.1536; in series [1] (80% MeOH), −0.0669. Also, the “Retention factor (k)” value in series [1] (60% MeOH) was 9.9412; in series [1] (65% MeOH) it was 5.2008; in series [1] (70% MeOH), 2.7812; in series [1] (75% MeOH) it was 1.4243; in series [1] (80% MeOH) it was 0.8573. Further, in series [1] (setting [5]), the chromatographic logP is 4.22 ± 0.09.

Regarding `Oc1ccc(/C=C/c2ccc(Cl)cc2Cl)cc1Cl` [Compound 4, 2-Chloro-4-[(E)-2-(2,4-dichlorophenyl)vinyl] phenol], the melting point was in the range of 135 to 136 °C. In series [1] (60% MeOH), the Log k is given as 1.7713 and the “Retention factor (k)” value is on record as 59.0580. Moreover, in series [1] (65% MeOH), the Log k is given as 1.4456 and the “Retention factor (k)” value is 27.8973. Moreover, in series [1] (70% MeOH), the Log k is 1.1149 and the “Retention factor (k)” value is reported as 13.0290. Besides, in series [1] (75% MeOH), the Log k is 0.7826 and the “Retention factor (k)” value is reported as 6.0620. Besides, in series [1] (80% MeOH), the Log k was 0.5423 and the “Retention factor (k)” value is 3.4855. In series [1] (setting [5]), the “Log P * ± SD” value is on record as 5.50 ± 0.14 and the chromatographic logP is over 5.

`Oc1ccc(/C=C/c2ccc(Cl)cc2Cl)cc1` [Compound 3, 4-[(E)-2-(2,4-Dichlorophenyl)vinyl]phenol] showed a melting point of 119 to 120 °C. In series [1] (50% MeOH), the Log k was 2.1310 and the “Retention factor (k)” value was 135.2173. Also, in series [1] (60% MeOH), the Log k was 1.4819 and the “Retention factor (k)” value was 30.3325. In series [1] (70% MeOH), the Log k was 0.8936 and the “Retention factor (k)” value is recorded as 7.8267. Besides, in series [1] (75% MeOH), the Log k is 0.6070 and the “Retention factor (k)” value was 4.0455. Also, in series [1] (80% MeOH), the Log k is on record as 0.3308 and the “Retention factor (k)” value is 2.1420. The chromatographic logP in series [1] (setting [5]) is 5.11 ± 0.07.

Compound `Oc1ccc(/C=C/c2ccc(Cl)cc2)cc1` [Compound 1, 4-[(E)-2-(4-Chlorophenyl)vinyl]phenol] gave a melting point of 184 to 185 °C. In series [1] (60% MeOH), the Log k is 0.9828 and the “Retention factor (k)” value is 9.6110. For the same compound, in series [1] (65% MeOH), the Log k is 0.6845 and the “Retention factor (k)” value is recorded as 4.8361. In addition, in series [1] (70% MeOH), the Log k is 0.4010 and the “Retention factor (k)” value is 2.5176. In series [1] (75% MeOH), the Log k was 0.1330 and the “Retention factor (k)” value is recorded as 1.3584. Also, in series [1] (80% MeOH), the Log k is −0.1255 and the “Retention factor (k)” value is listed as 0.7490. Moreover, in series [1] (setting [5]), the chromatographic logP was 4.29 ± 0.07.

Take `Oc1ccc(/C=C/c2ccccc2)cc1Cl` [Compound 2, 2-Chloro-4-[(E)-2-phenylvinyl]phenol]: the melting point lay within 126 to 127 °C. In series [1] (60% MeOH), the Log k was 1.0560 and the “Retention factor (k)” value is 11.3757. In series [1] (65% MeOH), the Log k is listed as 0.7826 and the “Retention factor (k)” value is 6.0620. In addition, in series [1] (70% MeOH), the Log k was 0.5049 and the “Retention factor (k)” value was 3.1984. In series [1] (75% MeOH), the Log k is 0.2243 and the “Retention factor (k)” value was 1.6761. Besides, in series [1] (80% MeOH), the Log k is reported as 0.0216 and the “Retention factor (k)” value is recorded as 1.0510. In addition, the chromatographic logP in series [1] (setting [5]) is 4.2 ± 0.12.

For `Oc1ccc(/C=C/c2cc(O)cc(O)c2)cc1` [RSV, 3,5,4′-trihydroxy-trans-stilbene, reference compound], in the series on C2C12 cells [2], the “cell vitality (MTT reduction)” value is listed as “did not change the effects respect to the control”. The “ROS levels (H2DCFDA fluorescence)” value in the series with C2C12 cells [3] is recorded as “reduce the ROS levels”. In addition, the Log k in series [1] (20% MeOH) is listed as 1.6477; in series [1] (25% MeOH), 1.3573; in series [1] (30% MeOH), 1.0693; in series [1] (40% MeOH) it was 0.5493; in series [1] (50% MeOH) it was 0.0010. For the same compound, the “Retention factor (k)” value in series [1] (20% MeOH) is 44.4282; in series [1] (25% MeOH) it was 22.7655; in series [1] (30% MeOH), 11.7294; in series [1] (40% MeOH), 3.5427; in series [1] (50% MeOH) it was 1.0024. In series [1] (setting [5]), the chromatographic logP is 2.47 ± 0.11. Moreover, the bioavailability result in series [4] is “less than 1%”. For the same compound, the oral bioavailability result in series [4] (in vivo) is on record as “almost zero”.
